Experimental data: patent US5578619A, “Alkoxy-substituted dihydrobenzopyran-2-sulfonimides” (priority 1995, dated 1996)

Assays:
[1] = system: Human neutrophils (LTB4 chemotaxis); experiment: Modified Boyden Chamber Chemotaxis (LTB4-induced neutrophil chemotaxis); type: cell-based; settings: 3×10^-8 M LTB4, 40-90 minute incubation at 37° C.
Description: (§1) Neutrophils were purified from venous blood of normal human donors using standard techniques of dextran sedimentation, centrifugation on Ficoll-paque® (Pharmacia) or Histopaque® sterile solution (Sigma) and hypotonic lysis of erythrocytes (Boyum, A., Isolation of Leukocytes From Human Blood: Further Observations. Scand. J. Lab. Clin. Invest., 21 (Suppl. 97): 31, 1968). The purity of isolated neutrophils was >95%.
Human neutrophils were isolated from citrated peripheral blood using standard techniques of dextran sedimentation, followed by centrifugation on Histopaque® sterile solution (Sigma) or Ficoll-paque® (Pharmacia) and hypotonic lysis of erythrocytes. A final cell suspension of 3.4×10^6 neutrophils/ml of HEPES-buffered Hanks' balanced salt solution (HBSS, pH 7.3) was added to the upper well (0.8 ml) of a modified Boyden chamber (blind well). The lower well (0.2 ml), separated by a polycarbonate membrane (Nucleopore Corp.), contained HBSS or 3×10^-8 M LTB4 in the presence or absence of test compound. Following a 40-90 minute incubation at 37° C. in 5% CO2 -95% air, cells from the lower well were lysed and nuclei counted in a Model S-Plus-IV Coulter Counter. The number of neutrophils migrating into the lower chamber in the absence of chemoattractant was subtracted from the number of cells migrating in the presence of a chemoattractant. Inhibition of chemotaxis by test compounds was expressed as percent inhibition relative to uninhibited control.

LTB4 Receptor = target: T1, LTB4 Receptor (Homo sapiens, UniProt Q15722); experiment: LTB4 Receptor Binding Assay; settings: human neutrophils, 0.6×10^-9 M (3H)LTB4, 0° C., 45 minutes
T1 construct: Neutrophils were purified from venous blood of normal human donors; endogenous in cells; host or cells: human neutrophils from venous blood of normal donors (purity >95%)
T1 sequence (Q15722 whole entry): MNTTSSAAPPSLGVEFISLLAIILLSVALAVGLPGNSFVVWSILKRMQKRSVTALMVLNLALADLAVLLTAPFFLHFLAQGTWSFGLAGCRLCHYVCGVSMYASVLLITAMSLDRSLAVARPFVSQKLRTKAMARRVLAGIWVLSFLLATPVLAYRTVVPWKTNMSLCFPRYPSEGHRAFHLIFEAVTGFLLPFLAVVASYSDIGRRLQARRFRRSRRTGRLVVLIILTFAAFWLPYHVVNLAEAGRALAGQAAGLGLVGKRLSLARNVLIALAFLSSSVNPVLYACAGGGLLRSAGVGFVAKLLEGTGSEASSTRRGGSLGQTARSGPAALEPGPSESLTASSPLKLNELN
Experimental: as §1, with “1968).” for “1968). The purity of isolated neutrophils was >95%.”
Neutrophils (4- 6×10^6) in 1 ml Hanks' balanced salt solution (HBSS) containing 10 mM HEPES buffer, pH 7.4 and 20 mM nordihydroguaiaretic acid were incubated with 0.6×10^-9 M (^3 H) LTB4 in the presence or absence of test compounds. The incubation was carried out at 0° C. for 45 minutes and terminated by adding 5 ml of ice-cold HBSS followed by rapid filtration of the incubation mixture under vacuum through GF/C glass fiber filters. The filters were further washed with 10 ml HBSS and radioactivity was determined. Specific binding was defined as the difference between total binding and nonspecific binding which was not displaced by 10^-7 M unlabeled LTB4. All data refer to specific binding.

Row | IC50 [1] | IC50 (LTB4 Receptor) | Compound
1 | 66 nM | 4.3 nM | CCCc1c(OCCCOc2ccc(-c3cscn3)c(OC)c2CC2CC2)ccc2c1OC(CCC(=O)NS(=O)(=O)c1ccccc1)CC2 (centres unmarked) [Example 15, Benzo sulfonimide of 3,4-Dihydro-7-[3-[3-methoxy-2-cycloproplymethyl-4-(4-thiazolyl)phenoxy]propoxy]-8-propyl-2H-1-benzopyran-2-propionic acid]
2 | 53 nM | 5.5 nM | CCCc1c(OCCCOc2ccc(-c3cscn3)c(OC)c2CC2CC2)ccc2c1OC(C(=O)NS(=O)(=O)c1ccccc1)CC2 (centres unmarked) [Example 9, Benzo sulfonimide of 7-[3-[2-(Cyclopropylmethyl)-3-methoxy-4-(4-thiazolyl)phenoxy]propoxy]-3,4-dihydro-8-propyl-2H-1-benzopyran-2-carboxylic acid]
3 | 1050 nM | – | CCCc1c(OCCCOc2ccc(C(C)=O)c(OC)c2CCC)ccc2c1OC(C(=O)O)CC2 (centres unmarked) [Example 1(b), 7-[3-(4-acetyl-3-methoxy-2-propylphenoxy)propoxy]-3,4-dihydro-8-propyl-2H-1-benzopyran-2-carboxylic acid, reference compound]
